Test results: publication PMC12332404, “Cytochrome P450BM-3 and P450 11A1 retain Compound I (FeO^3+) chemistry with electrophilic substrates poised for Compound 0 (Fe^3+O2^−) reactions” (The Journal of Biological Chemistry, 2025)
Blank lines part the entries; values can stand above or below the molecule they belong to.

Experiments:
P450BM-3 (102A1) [1] = target: T1, P450BM-3 (102A1) (Priestia megaterium, UniProt P14779); experiment: NADPH oxidation and LC-MS hydroxylation rate ([…] min^-1) with purified enzyme; format: biochemical
T1 construct: gene cyp102A1
T1 sequence (P14779 1-1049): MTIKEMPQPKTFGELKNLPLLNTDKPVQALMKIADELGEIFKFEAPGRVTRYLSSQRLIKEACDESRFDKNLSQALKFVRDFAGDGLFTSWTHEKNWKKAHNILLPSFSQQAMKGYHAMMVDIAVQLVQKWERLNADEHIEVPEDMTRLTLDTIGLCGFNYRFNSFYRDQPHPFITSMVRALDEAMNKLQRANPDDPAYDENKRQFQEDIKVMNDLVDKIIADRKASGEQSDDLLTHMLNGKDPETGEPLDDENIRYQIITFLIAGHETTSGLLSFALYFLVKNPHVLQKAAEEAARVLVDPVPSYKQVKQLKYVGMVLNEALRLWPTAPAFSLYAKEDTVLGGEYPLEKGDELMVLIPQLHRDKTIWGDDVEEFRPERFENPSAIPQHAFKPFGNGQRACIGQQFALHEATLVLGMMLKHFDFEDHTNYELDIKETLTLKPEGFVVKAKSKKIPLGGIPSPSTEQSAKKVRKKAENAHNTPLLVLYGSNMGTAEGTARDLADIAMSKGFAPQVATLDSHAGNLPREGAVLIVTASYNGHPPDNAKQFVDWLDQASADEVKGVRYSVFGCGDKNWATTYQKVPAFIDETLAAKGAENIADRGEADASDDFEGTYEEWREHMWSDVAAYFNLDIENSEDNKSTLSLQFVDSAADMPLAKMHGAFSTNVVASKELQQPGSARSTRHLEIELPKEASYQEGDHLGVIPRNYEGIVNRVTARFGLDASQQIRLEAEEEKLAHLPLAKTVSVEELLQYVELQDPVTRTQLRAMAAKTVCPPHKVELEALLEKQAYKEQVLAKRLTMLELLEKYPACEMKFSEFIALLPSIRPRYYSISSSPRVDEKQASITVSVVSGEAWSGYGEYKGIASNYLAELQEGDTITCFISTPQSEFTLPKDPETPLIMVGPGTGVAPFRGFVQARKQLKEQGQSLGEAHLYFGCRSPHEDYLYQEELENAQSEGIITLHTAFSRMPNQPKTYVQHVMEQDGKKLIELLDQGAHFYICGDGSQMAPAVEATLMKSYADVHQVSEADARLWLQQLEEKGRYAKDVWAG

P450BM-3 (102A1) [2] = target: T1, P450BM-3 (102A1); experiment: UV-vis spectral binding titration (Type I shift, […] to […] nm)
P450BM-3 (102A1) [3] = target: T1, P450BM-3 (102A1); experiment: NADPH oxidation and LC-MS hydroxylation rate ([…] min^-1) with purified enzyme; format: biochemical; remark: listed apart in the source
P450BM-3 (102A1) [4] = target: T1, P450BM-3 (102A1); experiment: as above; format: biochemical; remark: listed apart in the source
P450 11A1 = target: T2, P450 11A1 (Homo sapiens, UniProt P05108); experiment: UV-vis spectral binding titration (Type II behavior); LC-MS turnover
T2 construct: gene CYP11A1
T2 sequence (P05108 40-521): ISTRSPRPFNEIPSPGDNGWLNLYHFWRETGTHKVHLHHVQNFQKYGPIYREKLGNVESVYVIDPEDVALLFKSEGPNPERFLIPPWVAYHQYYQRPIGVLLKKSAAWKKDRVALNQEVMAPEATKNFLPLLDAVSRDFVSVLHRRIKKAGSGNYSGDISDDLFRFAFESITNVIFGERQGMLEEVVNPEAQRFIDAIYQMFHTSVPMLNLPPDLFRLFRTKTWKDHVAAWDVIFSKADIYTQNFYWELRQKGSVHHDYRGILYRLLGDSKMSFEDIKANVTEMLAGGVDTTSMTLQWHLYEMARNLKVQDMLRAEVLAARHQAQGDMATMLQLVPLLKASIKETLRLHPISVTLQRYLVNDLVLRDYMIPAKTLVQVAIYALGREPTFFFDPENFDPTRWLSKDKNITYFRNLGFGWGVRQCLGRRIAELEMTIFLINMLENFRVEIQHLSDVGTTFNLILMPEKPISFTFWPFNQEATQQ

Structure (SMILES): CCCCCCCCCCCCCC(=O)O [C14:0, tetradecanoic acid]
- NADPH oxidation and LC-MS hydroxylation rate (73 min^-1) with purified enzyme (P450BM-3 (102A1) [1]): 73 min⁻¹

- Kd (P450BM-3 (102A1) [2]): ~250 µM
Structure (SMILES): CC(=O)CCCCCCCCCCC(=O)O [12-oxo C13:0, 12-oxotridecanoic acid]

Structure (SMILES): CCCCCCCCCCCC(=O)O [C12:0, dodecanoic acid]
- NADPH oxidation and LC-MS hydroxylation rate (2.4 min^-1) with purified enzyme (P450BM-3 (102A1) [3]): 2.4 min⁻¹

- NADPH oxidation and LC-MS hydroxylation rate (100 min^-1) with purified enzyme (P450BM-3 (102A1) [4]): 100 min⁻¹
Structure (SMILES): CCCCCCCCCCCCCCCC(=O)O [C16:0, palmitic acid]

Structure (SMILES): CC(C)CCC(=O)[C@@H](C)[C@H]1CC[C@H]2[C@@H]3CC=C4C[C@@H](O)CC[C@]4(C)[C@H]3CC[C@]12C [22-oxocholesterol]
- Kd (P450 11A1): 43 ± 20 µM
